How the values were obtained:
VPAC2 = molecular target: T1, VPAC2 (Homo sapiens, UniProt P41587); assay: Millipore Drug Discovery Safety and Liability Panel; format: cell-based
T1 construct: Millipore

V1A = molecular target: T2, V1A (Homo sapiens, UniProt P37288); assay: as above; format: cell-based
T2 construct: Millipore

PDK1 = PDK1 (Homo sapiens, UniProt O15530); assay: Panel of 450 kinases and 10-point titration curve; format: biochemical
OPRD1 = molecular target: T3, OPRD1 (Homo sapiens, UniProt P41143); assay: Millipore Drug Discovery Safety and Liability Panel; format: cell-based
T3 construct: Millipore

PK1 = molecular target: T4, PK1 (Homo sapiens, UniProt Q8TCW9); assay: as above; format: cell-based
T4 construct: Millipore

[1] = read-out: ANTAGONIST mean % inhibition

T4 sequence (Q8TCW9 whole entry): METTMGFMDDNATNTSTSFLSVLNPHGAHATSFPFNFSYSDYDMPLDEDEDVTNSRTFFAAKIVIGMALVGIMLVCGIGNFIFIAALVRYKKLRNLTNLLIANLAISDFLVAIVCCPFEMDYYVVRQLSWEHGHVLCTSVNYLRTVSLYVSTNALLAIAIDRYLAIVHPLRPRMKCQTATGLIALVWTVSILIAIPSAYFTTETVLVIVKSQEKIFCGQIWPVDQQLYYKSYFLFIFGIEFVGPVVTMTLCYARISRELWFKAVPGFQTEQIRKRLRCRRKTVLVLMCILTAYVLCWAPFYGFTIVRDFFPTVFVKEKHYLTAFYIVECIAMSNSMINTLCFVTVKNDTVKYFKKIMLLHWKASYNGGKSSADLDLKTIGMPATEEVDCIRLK
T3 sequence (P41143 whole entry, species assumed): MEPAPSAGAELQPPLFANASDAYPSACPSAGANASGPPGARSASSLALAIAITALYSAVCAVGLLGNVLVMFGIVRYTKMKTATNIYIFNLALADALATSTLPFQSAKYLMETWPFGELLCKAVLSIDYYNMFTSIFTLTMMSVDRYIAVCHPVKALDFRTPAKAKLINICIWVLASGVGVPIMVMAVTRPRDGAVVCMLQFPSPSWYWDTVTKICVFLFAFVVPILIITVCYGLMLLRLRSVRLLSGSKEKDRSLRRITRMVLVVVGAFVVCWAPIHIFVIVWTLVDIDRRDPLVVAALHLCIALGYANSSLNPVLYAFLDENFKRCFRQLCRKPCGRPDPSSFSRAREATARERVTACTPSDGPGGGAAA
T2 sequence (P37288 whole entry): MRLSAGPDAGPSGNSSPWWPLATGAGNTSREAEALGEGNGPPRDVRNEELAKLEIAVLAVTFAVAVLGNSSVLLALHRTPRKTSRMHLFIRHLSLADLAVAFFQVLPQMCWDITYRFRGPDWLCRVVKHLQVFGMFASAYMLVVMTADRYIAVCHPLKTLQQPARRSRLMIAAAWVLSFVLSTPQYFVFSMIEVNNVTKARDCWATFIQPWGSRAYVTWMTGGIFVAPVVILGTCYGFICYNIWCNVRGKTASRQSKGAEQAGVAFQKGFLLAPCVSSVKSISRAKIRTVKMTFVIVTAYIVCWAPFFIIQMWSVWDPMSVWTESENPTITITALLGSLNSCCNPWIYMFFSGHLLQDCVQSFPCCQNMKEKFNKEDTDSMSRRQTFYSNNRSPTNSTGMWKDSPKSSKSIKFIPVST
T1 sequence (P41587 24-438): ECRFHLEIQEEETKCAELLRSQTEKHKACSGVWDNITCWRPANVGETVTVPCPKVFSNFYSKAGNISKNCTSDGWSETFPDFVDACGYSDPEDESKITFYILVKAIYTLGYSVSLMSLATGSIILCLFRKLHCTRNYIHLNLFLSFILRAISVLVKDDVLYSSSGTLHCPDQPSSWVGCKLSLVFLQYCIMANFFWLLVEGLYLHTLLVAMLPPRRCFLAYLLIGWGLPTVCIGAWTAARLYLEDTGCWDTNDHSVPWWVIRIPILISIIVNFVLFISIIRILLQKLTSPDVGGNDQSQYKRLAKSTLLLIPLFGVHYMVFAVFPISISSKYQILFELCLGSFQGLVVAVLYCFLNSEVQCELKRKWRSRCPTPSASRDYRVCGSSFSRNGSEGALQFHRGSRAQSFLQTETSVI
PDK1, sequence (O15530 whole entry): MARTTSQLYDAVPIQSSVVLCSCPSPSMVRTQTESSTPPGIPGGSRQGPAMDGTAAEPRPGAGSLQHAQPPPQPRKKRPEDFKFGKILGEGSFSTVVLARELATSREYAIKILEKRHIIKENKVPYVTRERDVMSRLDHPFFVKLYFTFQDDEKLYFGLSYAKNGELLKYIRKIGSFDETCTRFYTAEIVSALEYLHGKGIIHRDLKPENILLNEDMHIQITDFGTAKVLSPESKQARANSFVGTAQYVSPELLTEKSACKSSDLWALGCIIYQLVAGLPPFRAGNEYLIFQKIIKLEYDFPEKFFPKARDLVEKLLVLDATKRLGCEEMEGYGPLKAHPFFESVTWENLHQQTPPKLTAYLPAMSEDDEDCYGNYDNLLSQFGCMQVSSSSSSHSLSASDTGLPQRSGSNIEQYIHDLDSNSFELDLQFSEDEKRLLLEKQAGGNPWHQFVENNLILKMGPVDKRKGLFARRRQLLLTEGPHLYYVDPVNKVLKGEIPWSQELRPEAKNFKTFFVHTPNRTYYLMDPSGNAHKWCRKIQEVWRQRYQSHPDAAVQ

With `CCN1C(=O)COc2nc(-c3ccc(C4(N)CC(O)C4)cc3)c(-c3ccccc3)cc21.O=C(O)C(O)C(O)C(=O)O` [VAD044, 6-(4-(1-amino-3-hydroxycyclobutyl)phenyl)-1-ethyl-7-phenyl-1H-pyrido[2,3-b][1,4]oxazin-2(3H)-one L-tartrate] the activation at 10 µM (VPAC2; VPAC2, 10 μM, read-out: AGONIST mean % increase in activity) was 0%, the inhibition at 10 µM (VPAC2; [1]) was 6.2% and the activation at 10 µM (V1A; V1A, 10 μM, read-out: AGONIST mean % increase in activity) was -1.5%. It also gave an inhibition at 10 µM (V1A; [1]) of 2.5%, an inhibition at 10 µM (PDK1; 10 μM) of 77% and an IC50 (PDK1; 10-point titration curve) greater than 10 µM. The activation at 10 µM (OPRD1; OPRD1, 10 μM, read-out: AGONIST mean % increase in activity) was -0.9%, the inhibition at 10 µM (OPRD1; [1]) was 2.8% and the inhibition at 10 µM (PK1; PK-1, read-out: ANTAGONIST mean % inhibition) was -2.1%. The activation at 10 µM (PK1; PK-1, PK1, 10 μM, read-out: AGONIST mean % increase in activity) was 0%.

Source: patent US12466839B2, “Allosteric AKT inhibitors for use in the treatment of Hereditary Hemorrhagic Telangiectasia” (VADERIS THERAPEUTICS AG, priority 2020, dated 2025)
